Earlier results on one molecule are cited in patent US20130023590A1, “AQUEOUS COMPOSITIONS COMPRISING RESVERATROL AND METHODS FOR MAKING THEM” (priority 2011, published 2013).

Where two headings read alike, the source gives them in different places.

For data set [1] the following is noted: for solubility in water: with heating.
Another data set has as its system yeast. The note with it: in the absence of caloric restriction.
For data set [2] the following is noted: oral, humans.

Turning to `Oc1ccc(C=Cc2cc(O)cc(O)c2)cc1` [resveratrol, 3,4′,5-trihydroxystilbene], the “solubility in organic solvents” value in data set [1] (ethanol, dimethyl sulfoxide or dimethyl formamide) was “approximately 65 mg/ml”. For the same molecule, the solubility in water was 3 mg/100 ml in data set [1] (Sigma-Aldrich Product Information Sheet) and 30 ppm in data set [1] (same value restated in ppm). Besides, the “extension of replicative lifespan of yeast” value in the data set with yeast is given as 70%. For the same molecule, the bioavailability entry in data set [2] is recorded as “very low”.
